For 6 molecules, activity and IC50 results are on record in publication PMC7466635, “Identification of Quinazolinone Analogs Targeting CDK5 Kinase Activity and Glioblastoma Cell Proliferation” (Frontiers in Chemistry, 2020).

Assay [1] concerns the target T1, CDK5 (Homo sapiens, UniProt Q00535). As to the kind of experiment: CDKACT5-Cy5 fluorescent kinase activity biosensor with U87 cell extract; residual activity at […], IC50 not fittable. In kind it is cell-based. The following applies: U-87 MG.
Assay [2] addresses T1, CDK5. Nature of the assay: biochemical.
The target of assay [3] is T1, CDK5. Nature of the assay: biochemical. This is another data set of the same source.

Molecules are shown by their SMILES. Where two headings read alike, the source gives them in different places.

T1 sequence (Q00535 whole entry): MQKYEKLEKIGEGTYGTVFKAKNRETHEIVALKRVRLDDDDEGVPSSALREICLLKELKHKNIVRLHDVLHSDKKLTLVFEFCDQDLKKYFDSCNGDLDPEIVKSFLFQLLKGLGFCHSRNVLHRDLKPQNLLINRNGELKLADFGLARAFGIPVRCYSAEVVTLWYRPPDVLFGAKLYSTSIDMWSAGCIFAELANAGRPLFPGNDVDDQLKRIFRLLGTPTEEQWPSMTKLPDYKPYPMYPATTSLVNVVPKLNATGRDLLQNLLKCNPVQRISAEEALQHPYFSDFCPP
T1 sequence (Q15078 2-307 partner): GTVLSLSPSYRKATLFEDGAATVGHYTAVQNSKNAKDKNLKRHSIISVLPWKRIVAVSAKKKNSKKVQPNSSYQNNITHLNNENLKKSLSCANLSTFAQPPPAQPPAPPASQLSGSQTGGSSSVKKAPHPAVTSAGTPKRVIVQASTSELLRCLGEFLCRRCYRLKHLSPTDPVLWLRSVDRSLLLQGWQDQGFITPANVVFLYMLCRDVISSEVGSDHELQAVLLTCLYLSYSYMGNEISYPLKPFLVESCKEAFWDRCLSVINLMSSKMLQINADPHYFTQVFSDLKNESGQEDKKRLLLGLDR

Regarding `Nc1ccc2[nH]c(SCc3nc4ccccc4c(=O)n3-c3cccc(C(F)(F)F)c3)nc2c1` [5a, JMV5798], in assay [1], the activity at 100 µM turned out to be 40.2 ± 2.4%.

Consider `Nc1ccc2[nH]c(SCc3nc4ccccc4c(=O)n3-c3ccccc3)nc2c1` [5d, JMV5800], for which, in assay [2], the IC50 (usually the concentration that gives 50% inhibition) is 8.29 ± 3.56 µM.

With `Nc1ccc2[nH]c(SCc3nc4ccccc4c(=O)n3-c3ccccc3Br)nc2c1` [5j, JMV5886], the IC50 in assay [3] was 24.4 ± 32.5 µM.

The molecule `Nc1ccc2[nH]c(SCc3nc4ccccc4c(=O)n3-c3ccc(Br)cc3)nc2c1` [5l, JMV5889] gave an IC50 in assay [3] of 28.7 ± 51.2 µM.

In assay [2], `Nc1ccc2[nH]c(SCc3nc4ccccc4c(=O)n3-c3cccc(Cl)c3)nc2c1` [5m, JMV5884] gave an IC50 of 7.6 ± 3.8 µM.

The molecule `Cc1ccc2c(=O)n(-c3ccccc3)c(CSc3nc4cc(N)ccc4[nH]3)nc2c1` [5p, JMV5735] returned an IC50 in assay [3] of 9.35 ± 11.1 µM.
